Measurements taken from patent publication US12171229B2, “Heteroaryl-triazole and heteroaryl-tetrazole compounds as pesticides” (BAYER AKTIENGESELLSCHAFT, priority 2018, dated 2024).

Experiments:
Assay type in all cases: in vivo
Ctenocephalides felis [1] = test: Ctenocephalides felis in-vitro contact test, adult cat flea; conditions: 5 μg/cm^2 (=500 g/ha), after 48 hours, adult cat fleas, read-out: efficacy (fleas dead or moribund)
Outline: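 Compound in acetone coated onto inner walls of glass tubes, e.g. 900 ppm giving 5 μg/cm². After drying, 5–10 adult C. felis added per tube and held at room temperature. At 48 h, fleas unable to escape a 45–50 °C heating plate within 5 min scored dead/moribund, giving % efficacy.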

Spodoptera frugiperda = Spodoptera frugiperda spray test; conditions: 168 h, after 7 days, larvae on maize leaf sections
Outline: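 Percent larval kill read at day 7 on Zea mays leaf pieces that were spray-treated and, after drying, infested. Spray preparations made by dilution with emulsifier-containing water (1000 ppm).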

Rhipicephalus sanguineus = Rhipicephalus sanguineus in-vitro contact test, adult brown dog ticks; conditions: 5 μg/cm^2 (=500 g/ha), after 48 hours, read-out: efficacy (ticks dead or moribund)
Method: Rhipicephalus Sanguineus—In-Vitro Contact Tests with Adult Brown Doe Ticks
9 mg compound is solved in 1 ml acetone and diluted with acetone to the desired concentration. 250 μl of the test solution is filled in 25 ml glass test tubes and homogeneously distributed on the inner walls by rotation and tilting on a shaking device (2 h at 30 rpm). With a compound concentration of 900 ppm, an inner surface of 44.7 cm^2 and a homogeneous distribution, a dose of 5 μg/cm^2 is achieved.
After the solvent has evaporated, each test tube is filled with 5-10 adult brown dog ticks (Rhipicephalus sanguineus), closed with a perforated lid and incubated in a lying position at room temperature and relative humidity. After 48 hours efficacy is determined. The ticks are patted on the ground of the tubes and are incubated on a heating plate at 45-50° C. for at most 5 minutes. Immotile or uncoordinated moving ticks, which are not able to escape the heat by climbing upwards, are marked as dead or moribund.
An efficacy of 100% means all ticks are dead or moribund; 0% means no ticks are dead or moribund.

Ctenocephalides felis [2] = test: Ctenocephalides felis oral test; conditions: 48 h, 100 ppm in cattle blood, after 2 days, adult unfed cat fleas
Outline: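 Compound dissolved in DMSO and diluted in cattle blood to test concentration, offered to ~20 unfed adult fleas via a parafilm-sealed blood chamber held at 37° C (fleas at room temperature). Kill recorded at 2 days as % mortality.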

Diabrotica balteata = Diabrotica balteata spray test; conditions: Diabrotica balteata, in Triticum aestivum, 168 h, after 7 days, larvae on wheat seeds, read-out: efficacy (seedlings grown up); for pest or weed control at 80 µg/disc, 250 g/ha: 80 μg/well (=250 g/ha); for pest or weed control at 160 µg/disc, 500 g/ha: 160 μg/well (=500 g/ha)
Outline: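 Scoring at 7 days compares seedling growth with untreated, uninfested controls (100% = equal growth, 0% = none grown). Wheat seedlings germinated 1 day on agar, 5 per well, received a spray of test solution made in 1000 ppm emulsifier water. Each unit then received 10–20 beetle larvae.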

Nilaparvata lugens = Nilaparvata lugens spray test; conditions: 336 h, after 14 days, rice plants
Method: Nilaparvata lugens—Spray Test
(§1) To produce a suitable preparation of active compound, 1 part by weight of active compound is mixed with the stated amount of solvents and is diluted with water, containing an emulsifier concentration of 1000 ppm, to the desired concentration. Further test concentrations are prepared by dilution with emulsifier containing water.
Rice plants (Oryza sativa) are sprayed with a preparation of the active ingredient of the desired concentration and the plants are infested with the brown planthopper (Nilaparvata lugens).
After 14 days mortality in % is determined. 100% means all planthoppers have been killed and 0% means none of the planthoppers have been killed.

[3] = system: cattle ticks (Boophilus microplus) strane Parhurst, SP-resistant; test: Boophilus microplus dip test; conditions: Rhipicephalus microplus, 168 h, engorged adult female cattle ticks, egg deposition after 7 days, read-out: efficacy (infertile eggs)
Method: Boophilus microplus—Dip Test
Test animal: cattle ticks (Boophilus microplus) strane Parhurst, SP-resistant
Solvent: dimethyl sulfoxide
To produce a suitable preparation of active compound, 10 mg of active compound are dissolved in 0.5 ml solvent, and the concentrate is diluted with water to the desired concentration.
This compound solution is pipetted into tubes. 8-10 engorged, adult, female cattle ticks (Boophilus microplus) are placed in perforated tubes. These tubes are immersed in the aqueous compound solution until the ticks are completely moistened. After the liquid has drained off, the ticks are transferred to a filter paper in a plastic tray and stored in a climate chamber.
After 7 days egg deposition of fertile eggs is monitored. Eggs where fertility is not visible are stored in a climate chamber till hatching after about 42 days. An efficacy of 100% means all eggs are infertile; 0% means all eggs are fertile.

Boophilus microplus = Boophilus microplus injection test; conditions: Rhipicephalus microplus, 168 h; 20 μg/animal injected into the abdomen; adult engorged female ticks; egg deposition after 7 days; read-out: efficacy (infertile eggs)
Outline: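 Efficacy, from 0% (all eggs fertile) to 100% (all infertile), was scored on eggs laid by five engorged adult females. Each female was injected intra-abdominally with 1 μl of compound solution in DMSO. Fertile egg laying was checked at 7 days, with uncertain eggs kept until hatching at about 42 days.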

Nezara viridula = Nezara viridula spray test; conditions: 96 h, after 4 days, larvae on barley plants
Outline: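 Mortality (%) was assessed at day 4, from 0% (no bugs dead) to 100% (all dead). The spray solution was compound diluted to test concentration in water with 1000 ppm emulsifier and applied to barley carrying southern green stink bug larvae.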

Myzus persicae [4] = test: Myzus persicae spray test; conditions: foliar, 120 h, after 5 days, Chinese cabbage leaf disks
Outline: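 Percent kill was recorded 5 days after spraying. Test solutions, prepared with solvent and diluted in 1000 ppm emulsifier water, were applied to Brassica pekinensis leaf disks carrying mixed-instar green peach aphids.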

Myzus persicae [5] = test: Myzus persicae oral test; conditions: 120 h, after 5 days
Outline: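 Aphid mortality (%) was recorded 5 days after a mixed Myzus persicae population began sucking, through parafilm, on compound solutions (acetone stock diluted with water) combined with sugar-supplemented IPL41 medium.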

Meloidogyne incognita = Meloidogyne incognita test; conditions: 20 ppm; after 14 days; salad seedlings
Method: Meloidogyne incognita—Test Solvent: 125.0 parts by weight of acetone To produce a suitable preparation of active compound, 1 part by weight of active compound is mixed with the stated amount of solvent, and the concentrate is diluted with water to the desired concentration. Vessels are filled with sand, a solution of the active ingredient, a suspension containing eggs and larvae of the southern root-knot nematode (Meloidogyne incognita) and salad seeds. The salad seeds germinate and the seedlings grow. Galls develop in the roots. After 14 days the nematicidal activity is determined on the basis of the percentage of gall formation. 100% means no galls were found and 0% means the number of galls found on the roots of the treated plants was equal to that in untreated control plants.

[6] = system: Aedes aegypti strain MONHEIM; test: Aedes aegypti test (AEDSAE surface treatment & contact assay); conditions: 24 hours after contact, read-out: efficacy (mortality)
Outline: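 Compound dissolved in acetone (2 mg/ml) with 2000 ppm rapeseed oil methyl ester, applied to glazed tile and dried; adult strain MONHEIM mosquitoes exposed 30 minutes. Percent mortality scored 24 hours after contact.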

[7] = system: Musca domestica strain WHO-N; test: Musca domestica test (MUSCDO surface treatment & contact assay); conditions: surface concentration 20 mg/m^2, exposure 30 minutes, 24 hours after contact, read-out: efficacy (mortality)
Method: Musca domestica test (MUSCDO surface treatment & contact assay)
Solvent: Aceton+2000 ppm rapeseed oil methyl ester (RME)
In order to produce a sufficient, active ingredient containing solution it is necessary to solve the test compound in the solvent-mix (acetone at 2 mg/ml/RME 2000 ppm). This solution is pipetted onto a glazed tile and after evaporation of the acetone, adult flies of the species Musca domestica strain WHO-N are placed onto the dried surface. The exposure time is 30 minutes.
Mortality in percent (%) is determined 24 hours after contact of the insects to the treated surface. 100% morality means that all tested insects are dead, whereas 0% means that no insect died.

Phaedon cochleariae = Phaedon cochleariae spray test; conditions: foliar, 168 h, after 7 days, larvae on Chinese cabbage leaf disks
Method: Phaedon Cochleariae—Spray Test
as §1
Chinese cabbage (Brassica pekinensis) leaf disks are sprayed with a preparation of the active ingredient of the desired concentration. Once dry, the leaf disks are infested with mustard beetle larvae (Phaedon cochleariae).
After 7 days mortality in % is determined. 100% means all beetle larvae have been killed and 0% means none of the beetle larvae have been killed.

Row | SMILES | pest or weed control at 5 µg/cm2 (Ctenocephalides felis [1]) [%] | mortality at 100 g/ha (Spodoptera frugiperda) [%] | mortality at 500 g/ha (Spodoptera frugiperda) [%] | pest or weed control at 5 µg/cm2 (Rhipicephalus sanguineus) [%] | mortality at 100 ppm (Ctenocephalides felis [2]) [%] | pest or weed control at 80 µg/disc, 250 g/ha (Diabrotica balteata) [%] | pest or weed control at 160 µg/disc, 500 g/ha (Diabrotica balteata) [%] | mortality at 500 g/ha (Nilaparvata lugens) [%] | pest or weed control at 0.02 mg (Boophilus microplus) [%] | mortality at 100 g/ha (Nezara viridula) [%] | mortality at 500 g/ha (Nezara viridula) [%] | nematicidal activity (gall formation) (Meloidogyne incognita) [%] | mortality at 500 g/ha (Phaedon cochleariae) [%] | other results
1 | C[C@H](NC(=O)c1cc(Cl)cc(C(F)(F)F)c1)c1ncnn1-c1ncc(OC(F)F)cn1 [Example I-012] | 100 | 100 | 100 | 100 | 100 | 100 | 100 | 100 | 100 | 100 | 100 | – | – | pest or weed control at 100 ppm [3]: 95%
2 | C[C@H](NC(=O)c1cncc(C(F)(F)F)c1)c1ncnn1-c1ccc(C#N)cn1 [Example I-067] | 100 | 100 | 100 | 100 | 100 | 100 | 100 | 90 | 100 | 100 | 100 | – | – | mortality at 100 g/ha (Myzus persicae [4]): 90%; mortality at 500 g/ha (Myzus persicae [4]): 90%; mortality at 4 ppm (Myzus persicae [5]): 100%
3 | C[C@H](NC(=O)c1cc(Cl)cc(C(F)(F)F)c1)c1ncnn1-c1ncc(C#N)cn1 [Example I-010] | 100 | 100 | 100 | 100 | – | – | – | – | 100 | 100 | 100 | 100 | – | mortality at 4 ppm (Myzus persicae [5]): 100%; mortality at 4 mg/m2 ([6]; surface concentration 4 mg/m^2, exposure 30 minutes): 90 to 100%; mortality at 20 mg/m2 ([6]; surface concentration 20 mg/m^2, exposure 30 minutes): 90 to 100%; mortality at 20 mg/m2 [7]: 90 to 100%
4 | C[C@H](NC(=O)c1cc(Cl)cc(C(F)(F)F)c1)c1ncnn1-c1ccc(-n2cccn2)cn1 [Example I-074] | 80 | 100 | 100 | 80 | 80 | 100 | 100 | – | 100 | – | – | – | – | –
5 | CC(c1ncnn1-c1ccn(C)n1)N(CC1CC1)C(=O)c1cc(Cl)cc(C(F)(F)F)c1 (centres unmarked) [Example I-006] | – | – | 100 | – | 100 | 100 | 100 | – | 100 | – | – | – | 100 | mortality at 20 ppm (Myzus persicae [5]): 100%
6 | Cc1cc(C)nc(-n2ncnc2C(C)N(CC2CC2)C(=O)c2cc(Cl)cc(C(F)(F)F)c2)n1 (centres unmarked) [Example I-002, 3-Chloro-N-(cyclopropylmethyl)-N-{1-[1-(4,6-dimethylpyrimidin-2-yl)-1H-1,2,4-triazol-5-yl]ethyl}-5-(trifluoromethyl)benzamide] | – | – | – | – | – | – | – | – | – | – | – | 90 | – | –
7 | CC(c1ncnn1-c1ncc(C#N)cn1)N(CC1CC1)C(=O)c1cc(Cl)cc(C(F)(F)F)c1 (centres unmarked) [Example I-008] | – | 100 | 100 | – | – | 100 | 100 | – | – | 90 | 90 | – | 100 | mortality at 20 ppm (Myzus persicae [5]): 100%
8 | COc1cc(C)nc(-n2ncnc2C(C)N(CC2CC2)C(=O)c2cc(Cl)cc(C(F)(F)F)c2)n1 (centres unmarked) [Example I-001] | – | – | – | – | – | – | 100 | – | – | – | – | 100 | – | –
9 | C[C@H](NC(=O)c1cc(Cl)cc(C(F)(F)F)c1)c1ncnn1-c1ccc(N(S(C)(=O)=O)S(C)(=O)=O)cn1 [Example I-037] | 100 | 100 | – | – | 100 | 100 | 100 | 100 | 100 | 100 | 100 | – | – | mortality at 100 g/ha (Myzus persicae [4]): 90%; mortality at 500 g/ha (Myzus persicae [4]): 90%; pest or weed control at 100 ppm [3]: 100%
10 | CC(c1ncnn1-c1nc2ccccn2n1)N(CC1CC1)C(=O)c1cc(Cl)cc(C(F)(F)F)c1 (centres unmarked) [Example I-005] | – | – | 100 | – | 100 | 100 | 100 | – | 100 | – | 100 | – | 100 | –
